Reference: US5597703A, “Methods for determing cholesterol oxidase activity in an aqueous test sample, determining whether a test compound is capable of inhibiting cholesterol oxidase activity and determining the degree of cholesterol oxidase inhibitory activity” (priority 1994, dated 1997)

Test system: cholesterol oxidase
Assay: estimating the toxicity of chemical compounds by presence or absence of sterol domain fade-out in a monolayer on cholesterol oxidase aqueous solution
Type: biochemical
Conditions: cholesterol oxidase 5×10^-3 unit/ml
[1] = 1 mM test compound, monolayer DMPC 0.68 mM / cholesterol 0.3 mM / NBD-PC 0.02 mM

Description: In the first embodiment of the method for estimating the toxicity of chemical compounds, there is used cholesterol oxidase HEPES buffer solution of 5×10^-3 unit/ml as the cholesterol oxidase aqueous solution 12. Herein, HEPES means N-2-hydroxyethylpiperazine-N'-2-ethane sulfonic acid which has 0.1 of ionic strength and 7.45 of pH. […] As the monolayer spread solution 13, there is used a solution consisting of 0.68 mM of DMPC (L-α-dimyristoylphosphatidylcholine), 0.3 mM of cholesterol and 0.02 mM of fluorescent dye labeled phospholipid NBD-PC (1-palmitoyl-2-[12-[(7-nitro-2-1,3-benzoxadiazol-4-yl) amino]dodecanoyl]phosphatidylcholine) chloroform. The monolayer spread solution 13 is dropped in the amount of 9.4 ml thereof onto a surface (42.6 cm^2) of the cholesterol oxidase aqueous solution 12 in which 1 mM of zinc chloride is dissolved, and then there is immediately formed a monolayer on the surface.
In the second embodiment, there is used cholesterol oxidase HEPES buffer solution of 5×10^-3 unit/ml as the cholesterol oxidase aqueous solution 12. In the HEPES solution is dissolved 1 mM of calcium chloride the toxicity of which is to be estimated. As the monolayer spread solution 13, there is used a solution consisting of 0.68 mM of DMPC (L-α-dimyristoylphosphatidylcholine), 0.3 mM of cholesterol and 0.02 mM of fluorescent dye labeled phospholipid NBD-PC (1-palmitoyl-2-[12-[(7-nitro-2-1,3-benzoxadiazol-4-yl)amino]dodecanoyl]phosphatyzircoline) chloroform. Similarly to the first embodiment, the monolayer spread solution 13 is dropped onto a surface of the cholesterol oxidase aqueous solution 12, and then there is immediately formed a monolayer on the surface.
In the third embodiment, there is used cholesterol oxidase HEPES buffer solution of 5×10^-3 unit/ ml as the cholesterol oxidase aqueous solution 12. […] As the monolayer spread solution 13, there is used a solution consisting of 0.68 mM of DPPC (L-α-dipalmitoylphosphatidylcholine), 0.3 mM of dihydrocholesterol and 0.02 mM of fluorescent dye labeled phospholipid NBD-PE (1-palmitoyl-2-[12-[(7-nitro-2-1,3-benzoxadiazol-4-yl) amino]dodecanoyl]phosphatidylethanolamine) chloroform. Similarly to the first embodiment, there is formed a monolayer on a surface of the cholesterol oxidase aqueous solution 12 by dropping the monolayer spread solution 13 as above mentioned on the surface.
In the fourth embodiment, there is used cholesterol oxidase HEPES buffer solution of 5×10^-3 unit/ml as the cholesterol oxidase aqueous solution 12. […] As the monolayer spread solution 13, there is used a solution consisting of 0.68 mM of DPPE (L-α-tdipalmitoylphosphatidylethanolamine), 0.3 mM of pregnenolone and 0.02 mM of fluorescent dye labeled phospholipid TR-DPPE (N-(texasredsulfonyl)-L-α-dipalmitoylphosphatidylethanolamine) chloroform.

| Structure (SMILES) | toxicity to cholesterol oxidase (sterol domain fade-out 30 minutes after monolayer formation) [1] | further results |
| --- | --- | --- |
| CCCCCCCCCCCCOS(=O)(=O)[O-].[Na+] [SDS, sodium dodecyl sulfate] | – | toxicity to cholesterol oxidase (sterol domain fade-out 30 minutes after monolayer formation) (0.1 mM test compound, monolayer DPPE 0.68 mM / pregnenolone 0.3 mM / TR-DPPE 0.02 mM): has the toxicity to cholesterol oxidase |
| [Ca+2].[Cl-].[Cl-] [calcium chloride] | not toxic to cholesterol oxidase | – |
| [Cl][Hg][Cl] [mercury (II) chloride] | – | toxicity to cholesterol oxidase (sterol domain fade-out 30 minutes after monolayer formation) (1 mM test compound, monolayer DPPC 0.68 mM / dihydrocholesterol 0.3 mM / NBD-PE 0.02 mM): has the toxicity to cholesterol oxidase |
| [Cl-].[Cl-].[Zn+2] [zinc chloride] | toxic to cholesterol oxidase | – |
